According to ChEMBL document CHEMBL1201862, “PubChem BioAssay data set” (2004):
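Exposure lasted 48 hours, with cells grown in 96-well plates and compounds tested at five concentrations. GI50: concentration for 50% inhibition of growth.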 Active and inactive are the calls of the source. No stated cut-off is given here; in the data, active = GI50 up to about 1.1 µM and inactive = higher.

Key:
Experiment in all cases: NCI anticancer screen, dose series, 48 h
[1] = test system: RPMI-8226
[2] = test system: UACC-257
[3] = test system: UO-31
[4] = test system: SN12C
[5] = test system: MDA-MB-435
[6] = test system: SK-OV-3
[7] = test system: HT-29
[8] = test system: SK-MEL-2
[9] = test system: NCI/ADR-RES
[10] = test system: EKVX
[11] = test system: SF-268
[12] = test system: HOP-92
[13] = test system: IGROV-1
[14] = test system: PC-3
[15] = test system: SR
[16] = test system: OVCAR-3
[17] = test system: OVCAR-5
[18] = test system: M14
[19] = test system: ACHN
[20] = test system: UACC-62

Structure (SMILES) | GI50 [1] | GI50 [2] | GI50 [3] | GI50 [4] | GI50 [5] | GI50 [6] | GI50 [7] | GI50 [8] | GI50 [9] | GI50 [10] | GI50 [11] | GI50 [12] | GI50 [13] | GI50 [14] | GI50 [15] | GI50 [16] | GI50 [17] | GI50 [18] | GI50 [19] | GI50 [20]
Cc1nc(Nc2ccc(Cl)cc2Cl)sc1C(=O)Nc1ccccc1 | 29.2 µM (inactive) | 61.4 µM (inactive) | 29.6 µM (inactive) | > 100 µM (inactive) | 42.2 µM (inactive) | > 100 µM (inactive) | 35.3 µM (inactive) | 39.8 µM (inactive) | 96.6 µM (inactive) | 84.7 µM (inactive) | 77.6 µM (inactive) | 31.3 µM (inactive) | 63.4 µM (inactive) | 31 µM (inactive) | 28.2 µM (inactive) | 97.1 µM (inactive) | > 100 µM (inactive) | 80.9 µM (inactive) | 36.1 µM (inactive) | 82.6 µM (inactive)
C[C@H]1CC(=O)C[C@@H]2CC[C@@H]3[C@H](CC[C@]4(C)C(OC(=O)c5cccc6c(=O)c7ccccc7[nH]c56)CC[C@@H]34)[C@]21C (stereo not given in full) | 11.1 µM (inactive) | 32.6 µM (inactive) | 24.2 µM (inactive) | 46 µM (inactive) | 36.4 µM (inactive) | 16.3 µM (inactive) | 32.5 µM (inactive) | 28.6 µM (inactive) | 20.4 µM (inactive) | 31.1 µM (inactive) | 57.5 µM (inactive) | 16 µM (inactive) | 38.5 µM (inactive) | 14.8 µM (inactive) | 4.8 µM (inactive) | 47.2 µM (inactive) | > 100 µM (inactive) | 30.6 µM (inactive) | 34.4 µM (inactive) | 21.6 µM (inactive)
O=c1cnn(C2OC(CO)C(O)C(F)C2O)c(=O)[nH]1 (stereo not given) | > 100 µM (inactive) | > 100 µM (inactive) | > 100 µM (inactive) | > 100 µM (inactive) | > 100 µM (inactive) | > 100 µM (inactive) | > 100 µM (inactive) | > 100 µM (inactive) | > 100 µM (inactive) | > 100 µM (inactive) | > 100 µM (inactive) | > 100 µM (inactive) | > 100 µM (inactive) | > 100 µM (inactive) | 8.55 µM (inactive) | > 100 µM (inactive) | > 100 µM (inactive) | > 100 µM (inactive) | > 100 µM (inactive) | > 100 µM (inactive)
CC(C)(CO[C@H]1C[C@H]2CC[C@@]1(C)C2(C)C)[N+](=O)[O-] | 17.7 µM (inactive) | 18.5 µM (inactive) | 12.5 µM (inactive) | 27.4 µM (inactive) | 18.8 µM (inactive) | 29.1 µM (inactive) | 13 µM (inactive) | 16.6 µM (inactive) | 27.9 µM (inactive) | 16.7 µM (inactive) | 33 µM (inactive) | 14.6 µM (inactive) | 30.8 µM (inactive) | 20.9 µM (inactive) | 5.25 µM (inactive) | 22.8 µM (inactive) | 16.8 µM (inactive) | 13.3 µM (inactive) | 33.6 µM (inactive) | 19.9 µM (inactive)
CN(C)CCCNC(=O)c1cc(NC(=O)c2cc(NS(=O)(=O)c3ccc4c(c3)C(=O)c3ccccc3C4=O)cn2C)cn1C | 21.5 µM (inactive) | 45.8 µM (inactive) | > 100 µM (inactive) | > 100 µM (inactive) | 83.8 µM (inactive) | < 0.01 µM (active) | 65.3 µM (inactive) | > 100 µM (inactive) | > 100 µM (inactive) | > 100 µM (inactive) | > 100 µM (inactive) | > 100 µM (inactive) | > 100 µM (inactive) | > 100 µM (inactive) | 27 µM (inactive) | 95.5 µM (inactive) | > 100 µM (inactive) | > 100 µM (inactive) | > 100 µM (inactive) | 89.9 µM (inactive)
CSc1nc2cc(S(=O)(=O)N3CCCCC3)ccc2s1 | > 100 µM (inactive) | 48.3 µM (inactive) | > 100 µM (inactive) | > 100 µM (inactive) | > 100 µM (inactive) | > 100 µM (inactive) | > 100 µM (inactive) | > 100 µM (inactive) | > 100 µM (inactive) | 41.3 µM (inactive) | > 100 µM (inactive) | > 100 µM (inactive) | > 100 µM (inactive) | > 100 µM (inactive) | > 100 µM (inactive) | > 100 µM (inactive) | > 100 µM (inactive) | > 100 µM (inactive) | > 100 µM (inactive) | > 100 µM (inactive)
COc1ccc(OC)c2sc(N3C(=O)/C(=C/c4ccc(N(C)C)cc4)N=C3c3ccccc3)nc12 | 11 µM (inactive) | > 100 µM (inactive) | 55 µM (inactive) | 52.5 µM (inactive) | 31.4 µM (inactive) | > 100 µM (inactive) | 61.8 µM (inactive) | 36.9 µM (inactive) | > 100 µM (inactive) | > 100 µM (inactive) | > 100 µM (inactive) | > 100 µM (inactive) | > 100 µM (inactive) | 33 µM (inactive) | 19.6 µM (inactive) | 58.2 µM (inactive) | > 100 µM (inactive) | 99.3 µM (inactive) | 50.5 µM (inactive) | 28.3 µM (inactive)
